Reference: US6455593B1, “Method of dynamic retardation of cell cycle kinetics to potentiate cell damage” (priority 1995, dated 2002)

What was measured:
Experiment in all cases: Induction of apoptosis by DEET
Format in all cases: cell-based, human
U937 cells = test system: U937 cells
Daudi B cells = test system: Daudi B cells
Jurkat T cells = test system: Jurkat T cells

Measured: Concentration inducing apoptosis

CCN(CC)C(=O)c1cccc(C)c1 [DEET, N,N-Diethyl-m-toluamide]
above 0.5 mM: all assays above
